This assay deals with T1, AAK1 (Homo sapiens, UniProt Q2M2I8).
T1 construct: HA; expressed in transfected cells; host or cells: HEK293F
As to the kind of experiment: HEK281 cell-based assay (phospho-mu2 Western blot in transfected HEK293F cells). The settings on record: 3 hours incubation, read-out: CBA IC50. In outline: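 HEK293F cells co-transfected with full-length human AAK1/HA and Flag/AP2M1 were treated next day with 5 compound concentrations (3-fold dilutions) in DMEM+0.5% FBS for 3 hours at 37° C. Lysates were Western blotted for phospho-mu2, with total mu2 detected by anti-Flag.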

T1 sequence (Q2M2I8 1-863 isoform Q2M2I8-2): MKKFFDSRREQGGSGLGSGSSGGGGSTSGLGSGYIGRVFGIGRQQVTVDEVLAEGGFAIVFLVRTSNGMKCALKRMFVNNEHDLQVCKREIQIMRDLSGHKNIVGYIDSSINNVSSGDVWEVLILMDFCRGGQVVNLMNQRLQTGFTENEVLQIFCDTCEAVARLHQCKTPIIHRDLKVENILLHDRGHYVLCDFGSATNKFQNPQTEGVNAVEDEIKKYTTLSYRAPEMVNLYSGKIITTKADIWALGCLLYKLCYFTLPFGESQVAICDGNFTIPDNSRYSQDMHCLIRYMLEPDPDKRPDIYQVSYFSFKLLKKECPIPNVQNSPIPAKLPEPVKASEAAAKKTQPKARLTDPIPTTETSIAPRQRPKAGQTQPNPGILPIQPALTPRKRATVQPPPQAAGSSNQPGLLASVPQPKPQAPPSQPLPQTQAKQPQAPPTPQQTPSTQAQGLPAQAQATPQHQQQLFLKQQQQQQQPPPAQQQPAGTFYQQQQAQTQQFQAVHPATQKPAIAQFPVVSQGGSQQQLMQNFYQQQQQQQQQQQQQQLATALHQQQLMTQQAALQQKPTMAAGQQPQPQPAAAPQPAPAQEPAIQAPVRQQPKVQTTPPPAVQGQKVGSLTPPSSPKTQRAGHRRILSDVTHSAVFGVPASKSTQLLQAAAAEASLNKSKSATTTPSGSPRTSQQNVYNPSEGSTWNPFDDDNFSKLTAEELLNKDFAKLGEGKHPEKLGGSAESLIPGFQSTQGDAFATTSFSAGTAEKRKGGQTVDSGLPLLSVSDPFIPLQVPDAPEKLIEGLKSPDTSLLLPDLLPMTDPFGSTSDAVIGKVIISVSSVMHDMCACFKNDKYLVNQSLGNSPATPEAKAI

In the case of `CCCCNc1ccc2ncc(-c3ccc(C(=O)NCCN)cc3)n2n1` [N-(2-aminoethyl)-4-(6-(butylamino)imidazo[1,2-b]pyridazin-3-yl)benzamide], the IC50 is at most 1000 nM.

As to `CCCCNc1ccc2ncc(-c3ccc(C(=O)NCC(C)N)cc3)n2n1` (stereo not drawn) [N-(2-aminopropyl)-4-(6-(butylamino)imidazo[1,2-b]pyridazin-3-yl)benzamide], the IC50 was at most 1000 nM.

With `CCOc1ccccc1CCNc1ccc2ncc(-c3ccncc3OC)n2n1` [N-(2-ethoxyphenethyl)-3-(3-methoxypyridin-4-yl)imidazo[1,2-b]pyridazin-6-amine], the half-maximal inhibitory concentration (IC50) is at most 100 nM.

In the case of `COc1ccccc1-c1cnc2ccc(NCCOCC(C)C)nn12` [N-(2-isobutoxyethyl)-3-(2-methoxyphenyl)imidazo[1,2-b]pyridazin-6-amine], the IC50 is at most 1000 nM.

Consider `COc1cnccc1-c1cnc2ccc(NCCOCC(C)C)nn12` [N-(2-isobutoxyethyl)-3-(3-methoxypyridin-4-yl)imidazo[1,2-b]pyridazin-6-amine], for which the IC50 is at most 100 nM.

`CC(C)COCCNc1ccc2ncc(-c3ccncc3)n2n1` [N-(2-isobutoxyethyl)-3-(pyridin-4-yl)imidazo[1,2-b]pyridazin-6-amine]: the IC50 is at most 1000 nM.

With `CC(C)OCCNc1ccc2ncc(-c3cc[nH]n3)n2n1` [N-(2-isopropoxyethyl)-3-(1H-pyrazol-3-yl)imidazo[1,2-b]pyridazin-6-amine], the half-maximal inhibitory concentration (IC50) is at most 1000 nM.

On to `COc1cnccc1-c1cnc2ccc(NCCOC(C)C)nn12` [N-(2-isopropoxyethyl)-3-(3-methoxypyridin-4-yl)imidazo[1,2-b]pyridazin-6-amine], for which the IC50 was at most 10 nM.

Take `CC(C)OCCNc1ccc2ncc(-c3ccc(C4CCCN4)cc3)n2n1` (stereo not drawn) [N-(2-isopropoxyethyl)-3-(4-(pyrrolidin-2-yl)phenyl)imidazo[1,2-b]pyridazin-6-amine]: the IC50 was at most 100 nM.

Regarding `CC(C)OCCNc1ccc2ncc(-c3ccns3)n2n1` [N-(2-isopropoxyethyl)-3-(isothiazol-5-yl)imidazo[1,2-b]pyridazin-6-amine], the IC50 is at most 100 nM.

As to `CC(C)OCCNc1ccc2ncc(-c3cscn3)n2n1` [N-(2-isopropoxyethyl)-3-(thiazol-4-yl)imidazo[1,2-b]pyridazin-6-amine], the IC50 is at most 1000 nM.

As for `CNCCOCc1ccc(-c2cnc3ccc(NCCC(C)(C)C)nn23)cc1` [N-(3,3-dimethylbutyl)-3-(4-((2-(methylamino)ethoxy)methyl)phenyl)imidazo[1,2-b]pyridazin-6-amine], the IC50 was at most 100 nM.

For `CC(C)(C)CCNc1ccc2ncc(-c3ccc(C4CCCN4)cc3)n2n1` (stereo not drawn) [N-(3,3-dimethylbutyl)-3-(4-(pyrrolidin-2-yl)phenyl)imidazo[1,2-b]pyridazin-6-amine], the IC50 was at most 1000 nM.

As for `CN(CCCNc1ccc2ncc(-c3ccc(CN)cc3)n2n1)C(=O)C(C)(C)C` [N-(3-((3-(4-(aminomethyl)phenyl)imidazo[1,2-b]pyridazin-6-yl)amino)propyl)-N-methylpivalamide], the IC50 was at most 1000 nM.

For `COc1cnccc1-c1cnc2ccc(NCCCOC(C)(C)C)nn12` [N-(3-(tert-butoxy)propyl)-3-(3-methoxypyridin-4-yl)imidazo[1,2-b]pyridazin-6-amine], the IC50 is at most 1000 nM.

Turning to `CCCCNc1ccc2ncc(-c3ccc(C(=O)NCCCN)cc3)n2n1` [N-(3-aminopropyl)-4-(6-(butylamino)imidazo[1,2-b]pyridazin-3-yl)benzamide], the IC50 was at most 1000 nM.

For the molecule `FCCCNc1ccc2ncc(-c3ccc(C4CCCN4)cc3)n2n1` (stereo not drawn) [N-(3-fluoropropyl)-3-(4-(pyrrolidin-2-yl)phenyl)imidazo[1,2-b]pyridazin-6-amine], the IC50 was at most 100 nM.

Consider `c1ccc(CCCNc2ccc3ncc(-c4ccc(C5CCCN5)cc4)n3n2)cc1` (stereo not drawn) [N-(3-phenylpropyl)-3-(4-(pyrrolidin-2-yl)phenyl)imidazo[1,2-b]pyridazin-6-amine], for which the IC50 is at most 1000 nM.

For the molecule `CCCCNc1ccc2ncc(C(=O)Nc3ccc(OCCN)cc3)n2n1` [N-(4-(2-aminoethoxy)phenyl)-6-(butylamino)imidazo[1,2-b]pyridazine-3-carboxamide], the IC50 was at most 1000 nM.

Regarding `CCCCNc1ccc2ncc(C(=O)Nc3ccc(CN)cc3)n2n1` [N-(4-(aminomethyl)phenyl)-6-(butylamino)imidazo[1,2-b]pyridazine-3-carboxamide], the IC50 was at most 1000 nM.

Take `CCCCNc1ccc2ncc(-c3ccc(C(=O)N[C@@H]4CCCC[C@@H]4N)cc3)n2n1` [N-((1R,2S)-2-aminocyclohexyl)-4-(6-(butylamino)imidazo[1,2-b]pyridazin-3-yl)benzamide]: the IC50 was at most 100 nM.

In the case of `COc1cnccc1-c1cnc2ccc(NCC3CCCC3)nn12` [N-(cyclopentylmethyl)-3-(3-methoxypyridin-4-yl)imidazo[1,2-b]pyridazin-6-amine], the IC50 is at most 100 nM.

Turning to `CCCCNc1ccc2ncc(-c3cc[nH]n3)n2n1` [N-butyl-3-(1H-pyrazol-3-yl)imidazo[1,2-b]pyridazin-6-amine], the IC50 is at most 100 nM.

For `CCCCNc1ccc2ncc(-c3sc(C)nc3C)n2n1` [N-butyl-3-(2,4-dimethylthiazol-5-yl)imidazo[1,2-b]pyridazin-6-amine], the IC50 was at most 100 nM.

Consider `CCCCNc1ccc2ncc(-c3ccncc3OC)n2n1` [N-butyl-3-(3-methoxypyridin-4-yl)imidazo[1,2-b]pyridazin-6-amine], for which the IC50 was at most 100 nM.

`CCCCNc1ccc2ncc(-c3ccc(CNCCOC)cc3)n2n1` [N-butyl-3-(4-(((2-methoxyethyl)amino)methyl)phenyl)imidazo[1,2-b]pyridazin-6-amine]: the IC50 is at most 1000 nM.

Turning to `CCCCNc1ccc2ncc(-c3ccc(CNCC4CCCO4)cc3)n2n1` (stereo not drawn) [N-butyl-3-(4-((((tetrahydrofuran-2-yl)methyl)amino)methyl)phenyl)imidazo[1,2-b]pyridazin-6-amine], the IC50 was at most 1000 nM.

Turning to `CCCCNc1ccc2ncc(-c3ccc(CNCC4CC4)cc3)n2n1` [N-butyl-3-(4-(((cyclopropylmethyl)amino)methyl)phenyl)imidazo[1,2-b]pyridazin-6-amine], the IC50 was at most 1000 nM.

Consider `CCCCNc1ccc2ncc(-c3ccc(CNC(C)C)cc3)n2n1` [N-butyl-3-(4-((isopropylamino)methyl)phenyl)imidazo[1,2-b]pyridazin-6-amine], for which the IC50 was at most 1000 nM.

`CCCCNc1ccc2ncc(-c3ccc(CNCCC)cc3)n2n1` [N-butyl-3-(4-((propylamino)methyl)phenyl)imidazo[1,2-b]pyridazin-6-amine]: the IC50 is at most 1000 nM.

On to `CCCCNc1ccc2ncc(-c3ccc(CNC(C)(C)C)cc3F)n2n1` [N-butyl-3-(4-((tert-butylamino)methyl)-2-fluorophenyl)imidazo[1,2-b]pyridazin-6-amine], for which the IC50 was at most 1000 nM.

As for `CCCCNc1ccc2ncc(-c3ccc(CNC(C)(C)C)c(F)c3)n2n1` [N-butyl-3-(4-((tert-butylamino)methyl)-3-fluorophenyl)imidazo[1,2-b]pyridazin-6-amine], the IC50 was at most 100 nM.

`CCCCNc1ccc2ncc(-c3ccc(C4CCCN4)cc3)n2n1` (stereo not drawn) [N-butyl-3-(4-(pyrrolidin-2-yl)phenyl)imidazo[1,2-b]pyridazin-6-amine]: the concentration for half-maximal inhibition (IC50) was at most 1000 nM.

Consider `CCCCNc1ccc2ncc(-c3ccc4c(c3)CNC4)n2n1` [N-butyl-3-(isoindolin-5-yl)imidazo[1,2-b]pyridazin-6-amine], for which the IC50 is at most 1000 nM.

As to `COc1cnccc1-c1cnc2ccc(NCCC(C)C)nn12` [N-isopentyl-3-(3-methoxypyridin-4-yl)imidazo[1,2-b]pyridazin-6-amine], the IC50 was at most 100 nM.

On to `CNC(=O)c1ccc(-c2cnc3ccc(NCCc4ccccc4OC(F)(F)F)nn23)cc1` [N-methyl-4-(6-((2-(trifluoromethoxy)phenethyl)amino)imidazo[1,2-b]pyridazin-3-yl)benzamide], for which the IC50 is at most 10 nM.

Turning to `CCCCCNc1ccc2ncc(-c3ccc(C4CCCN4)cc3)n2n1` (stereo not drawn) [Pentyl-[3-(4-pyrrolidin-2-yl-phenyl)-imidazo[1,2-b]pyridazin-6-yl]-amine], the IC50 was at most 1000 nM.

Turning to `CCCCNc1nn2c(-c3ccc(CN)cc3)cnc2cc1C` [[3-(4-Aminomethyl-phenyl)-7-methyl-imidazo[1,2-b]pyridazin-6-yl]-butyl-amine], the IC50 was at most 100 nM.

As for `NCc1ccc(-c2cnc3ccc(NCCCc4ccccc4)nn23)cc1` [[3-(4-Aminomethyl-phenyl)-imidazo[1,2-b]pyridazin-6-yl]-(3-phenyl-propyl)-amine], the IC50 is at most 100 nM.

On to `NCc1ccc(-c2cnc3ccc(NC4CCCCC4)nn23)cc1` [[3-(4-Aminomethyl-phenyl)-imidazo[1,2-b]pyridazin-6-yl]-cyclohexylamine], for which the IC50 was at most 1000 nM.

`CC(C)N(CCNc1ccc2ncc(-c3ccc(C(N)=O)cc3)n2n1)C(=O)OC1CCCC1` [cyclopentyl (2-((3-(4-carbamoylphenyl)imidazo[1,2-b]pyridazin-6-yl)amino)ethyl)(isopropyl)carbamate]: the IC50 is at most 100 nM.

In the case of `CCOC(=O)CCCNc1ccc2ncc(-c3ccc(CN)cc3)n2n1` [ethyl 4-((3-(4-(aminomethyl)phenyl)imidazo[1,2-b]pyridazin-6-yl)amino)butanoate], the IC50 is at most 100 nM.

Take `CCOC(=O)N(C)CCNc1ccc2ncc(-c3ccncc3OC)n2n1` [ethyl (2-((3-(3-methoxypyridin-4-yl)imidazo[1,2-b]pyridazin-6-yl)amino)ethyl)(methyl)carbamate]: the IC50 is at most 10 nM.

With `CCOC(=O)N(C)CCNc1ccc2ncc(-c3ccc(C(=O)NCCC(C)C)cc3)n2n1` [ethyl (2-((3-(4-(isopentylcarbamoyl)phenyl)imidazo[1,2-b]pyridazin-6-yl)amino)ethyl)(methyl)carbamate], the concentration for half-maximal inhibition (IC50) is at most 100 nM.

Consider `CCOC(=O)N(C)CCNc1ccc2ncc(-c3ccc(C(=O)NC(C)(C)C)cc3)n2n1` [ethyl (2-((3-(4-(tert-butylcarbamoyl)phenyl)imidazo[1,2-b]pyridazin-6-yl)amino)ethyl)(methyl)carbamate], for which the IC50 was at most 100 nM.

Usually IC50 stands for the concentration that gives 50% inhibition.
